From US6949648B2, “Condensed pyrazole derivatives, process for producing the same and use thereof” (Takeda Pharmaceutical Company Limited, priority 2000, dated 2005)
Where a name gives a salt, the structure may show the parent alone.

How the values were obtained:
OVA-specific IgE = experiment: Effect on antibody production of ovalbumin-sensitized mice: IgE; format: in vivo, BALB/c mouse; settings: Mus musculus, po, 264 h; 30 mg/kg b.w. orally, 5 days a week during 9-day period; serum 11 days after first sensitization, ELISA; read-out: Suppression Rate (%) IgE
Description: (§1) Effect on Antibody Production of Mice Sensitized by Controlled-Release Ovalbumin
(§2) A male BALB/c mouse (Charles River) of 7 weeks old was sensitized by intraabdominal administration, twice at an interval of a week, of a mixture of 10 μg/mouse of ovalbumin (OVA; albumin chicken egg grade III; Sigma Chemical) and 1 mg of aluminum hydroxide hydrate gel suspension (Alum; LSL Co. LTD.). After 11 days from the first sensitization, blood was collected from beneath eye under ether anesthesia, and the amount of OVA-specific IgE, IgG1 (Th2 type) and IgG2a (Th1 type) antibodies in the serum were determined by the ELISA method. A sample compound (30 mg/kg b.w.) was suspended in 0.4 ml of methylcellulose (MC), and the suspension was orally administered, 5 days a week during the 9-day period from the initiation day of sensitization to the day before the day of blood sample collection (1 Group, n=8 to 10).

[1] = test system: OVA-specific IgG2a (Th1 type); experiment: Effect on antibody production of ovalbumin-sensitized mice: IgG2a; format: in vivo, BALB/c mouse; settings: Mus musculus, po, 264 h; 30 mg/kg b.w. orally, 5 days a week during 9-day period; serum 11 days after first sensitization, ELISA; read-out: Suppression Rate (%) IgG2a
Description: as §1, §2

Compound | inhibition in vivo at 30 mg/kg (OVA-specific IgE) [%] | inhibition in vivo at 30 mg/kg [1] [%] | melting point [°C]
Cc1nn(-c2ccccn2)c2[nH]c3ccccc3c(=S)c12 [Example 1-42, 3-Methyl-1-(2-pyridinyl)-1,9-dihydro-4H-pyrazolo[3,4-b]quinolin-4-thione] | 24 | 14.3 | 252 to 253
Cc1nn(Cc2ccccn2)c2nc3ccccc3c(N)c12 [Example 1-68, 3-Methyl-1-(2-pyridinylmethyl)-1H-pyrazolo[3,4-b]quinolin-4-ylamine] | 31.6 | 31.7 | –
CNc1c2ccccc2nc2c1c(C)nn2-c1ccccn1.Cl [Example 1-37, N-Methyl-N-[3-methyl-1-(2-pyridinyl)-1H-pyrazolo[3,4-b]quinolin-4-yl]amine hydrochloride] | 29.6 | 9.6 | 229 to 232
Cc1nn(-c2ccccn2)c2ncc(C(=O)O)c(O)c12 [Example 1-2, 4-Hydroxy-3-methyl-1-(2-pyridinyl)-1H-pyrazolo[3,4-b]pyridine-5-carboxylic acid] | 29.2 | -67.9 | –
Cc1ccc(-n2nc(C)c3c(=O)c4ccccc4[nH]c32)nc1 [Example 1-55, 3-Methyl-1-(5-methyl-2-pyridinyl)-1,9-dihydro-4H-pyrazolo[3,4-b]quinolin-4-one hydrochloride] | 11.7 | 13.7 | –
Cc1nn(-c2ccccn2)c2nc3ccc(F)cc3c(Cl)c12 [Example 1-52, 4-Chloro-6-fluoro-3-methyl-1-(2-pyridinyl)-1H-pyrazolo[3,4-b]quinoline] | 41.1 | 39.9 | –
Cl.Nc1c2ccccc2nc2c1cnn2-c1ccccn1 [Example 1-67, 1-(2-Pyridinyl)-1H-pyrazolo[3,4-b]quinolin-4-ylamine hydrochloride] | 10.5 | -30.7 | 312 to 315
Cc1nn(-c2ccccn2)c2nccc(O)c12 [Example 1-3, 3-Methyl-1-(2-pyridinyl)-1H-pyrazolo[3,4-b]pyridin-4-ol] | 19 | -39.5 | –
Cc1nn(-c2ccccn2)c2nc(O)c(Cc3ccccc3)c(C)c12 [Example 1-25, 5-Benzyl-3,4-dimethyl-1-(2-pyridinyl)-1H-pyrazolo[3,4-b]pyridin-6-ol] | 33.9 | 16.5 | 208 to 209
Cc1nn(-c2ccccn2)c2[nH]c3ccc(F)cc3c(=O)c12 [Example 1-53, 6-Fluoro-3-methyl-1-(2-pyridinyl)-1,9-dihydro-4H-pyrazolo[3,4-b]quinolin-4-one] | 8 | 36.1 | –
Cc1ccc(-n2nc(C)c3c(N)c4ccccc4nc32)nc1 [Example 1-54, 3-Methyl-1-(5-methyl-2-pyridinyl)-1H-pyrazolo[3,4-b]quinolin-4-ylamine] | 17.6 | -148 | –
Cc1nn(-c2ccccn2)c2nc(O)c3c(c12)CCCC3 [Example 1-29, 1-Methyl-3-(2-pyridinyl)-6,7,8,9-tetrahydro-3H-pyrazolo[3,4-c]isoquinolin-5-ol] | 19.1 | -22.6 | 248 to 249
Cc1nn(-c2cccnc2)c2nc3ccccc3c(N)c12 [Example 1-63, 3-Methyl-1-(3-pyridinyl)-1H-pyrazolo[3,4-b]quinolin-4-ylamine dihydrochloride] | 25.2 | -5.8 | –
COc1cc2nc3c(c(C)nn3-c3ccccn3)c(N)c2cc1OC.Cl | – | – | 277 to 280
CC(C)c1nn(-c2ccccn2)c2[nH]c3ccccc3c(=O)c12 [Example 2-173, 3-Isopropyl-1-(2-pyridinyl)-1,9-dihydro-4H-pyrazolo[3,4-b]quinolin-4-one] | – | – | 143 to 144
Cc1nn(-c2ccccn2)c2nc3ccc(Br)cc3c(Cl)c12 [Example 2-86, 6-Bromo-4-chloro-3-methyl-1-(2-pyridinyl)-1H-pyrazolo[3,4-b]quinoline] | – | – | 234 to 235
Cc1nn(-c2ccccn2)c2nc(-c3ccccc3)cc(O)c12 [Example 1-22, 3-Methyl-6-phenyl-1-(2-pyridinyl)-1H-pyrazolo[3,4-b]pyridin-4-ol] | 14 | -2.1 | 198 to 199
Cc1nn(-c2ccccn2)c2[nH]c3ccc(N(C)C)cc3c(=O)c12 [Example 2-56, 6-Dimethylamino-3-methyl-1-(2-pyridinyl)-1,9-dihydro-4H-pyrazolo[3,4-b]quinolin-4-one] | – | – | 171 to 173

Compound | inhibition in vivo at 30 mg/kg (OVA-specific IgE) [%] | inhibition in vivo at 30 mg/kg [1] [%] | melting point [°C]
CCOC(=O)c1cnc2c(c(C)nn2-c2ccccn2)c1O [Example 1-1, Ethyl 4-hydroxy-3-methyl-1-(2-pyridinyl)-1H-pyrazolo[3,4-b]pyridine-5-carboxylate] | 46.3 | 17.8 | 166 to 169
Cc1nn(-c2ccccn2)c2nc3cccc(F)c3c(Cl)c12 [Example 2-78, 4-Chloro-5-fluoro-3-methyl-1-(2-pyridinyl)-1H-pyrazolo[3,4-b]quinoline] | – | – | 160 to 161
Cc1nn(-c2ccccn2)c2[nH]c3cc(N)ccc3c(=O)c12 [Example 2-59, 7-Amino-3-methyl-1-(2-pyridinyl)-1,9-dihydro-4H-pyrazolo[3,4-b]quinolin-4-one] | – | – | 284 to 286
Cc1nn(-c2ccccn2)c2nc3ccccc3c(N(C)C)c12 [Example 1-38, N,N-Dimethyl-N-[3-methyl-1-(2-pyridinyl)-1H-pyrazolo[3,4-b]quinolin-4-yl]amine] | 36.1 | -122 | 98 to 101
Clc1ccc2nc3c(cnn3-c3ccccn3)c(Cl)c2c1 [Example 2-160, 4,6-Dichloro-1-(2-pyridinyl)-1H-pyrazolo[3,4-b]quinoline] | – | – | 175 to 176
CSc1ccc2nc3c(c(C)nn3-c3ccccn3)c(Cl)c2c1 [Example 2-49, 4-Chloro-3-methyl-6-(methylsulfanyl)-1-(2-pyridinyl)-1H-pyrazolo[3,4-b]quinoline] | – | – | 182
Cc1nn(-c2ccccn2)c2[nH]c3ccccc3c(=O)c12 [Example 1-39, 3-Methyl-1-(2-pyridinyl)-1,9-dihydro-4H-pyrazolo[3,4-b]quinolin-4-one] | – | – | 199 to 200
Cc1nn(-c2ccccn2)c2nc3ccccc3c(CC(C)C)c12 [Example 2-105, 4-Isobutyl-3-methyl-1-(2-pyridinyl)-1H-pyrazolo[3,4-b]quinoline] | – | – | 87 to 88
Cc1nn(-c2ccccn2)c2[nH]c3ccc(C(=O)O)cc3c(=O)c12 [Example 2-65, 3-Methyl-4-oxo-1-(2-pyridinyl)-4,9-dihydro-1H-pyrazolo[3,4-b]quinoline-6-carboxylic acid] | – | – | > 300
CCCn1c2cc(F)c(F)cc2c(=O)c2c(C)nn(-c3ccccn3)c21 [Example 2-93, 6,7-Difluoro-3-methyl-9-propyl-1-(2-pyridinyl)-1,9-dihydro-4H-pyrazolo[3,4-b]quinolin-4-one] | – | – | 198 to 200
Cc1nn(-c2ccccn2)c2nc(O)c3c(c12)CCCCC3 [Example 1-30, 1-Methyl-3-(2-pyridinyl)-3,6,7,8,9,10-hexahydrocyclohepta[d]pyrazolo[3,4-b]pyridin-5-ol] | – | – | 243 to 244
COC(=O)Cc1nn(-c2ccccn2)c2[nH]c3ccccc3c(=O)c12 [Example 2-176, Methyl 2-[4-oxo-1-(2-pyridinyl)-4,9-dihydro-1H-pyrazolo[3,4-b]quinolin-3-yl]acetate] | – | – | 240 to 241
Cc1nn(-c2ccccn2)c2nc(O)cc(-c3ccccc3)c12 [Example 1-27, 3-Methyl-4-phenyl-1-(2-pyridinyl)-1H-pyrazolo[3,4-b]pyridin-6-ol] | 24.3 | 27.1 | 195 to 196
Cc1nn(-c2ccccn2)c2nc(Cc3ccccc3)cc(O)c12 [Example 1-21, 6-Benzyl-3-methyl-1-(2-pyridinyl)-1H-pyrazolo[3,4-b]pyridin-4-ol] | – | – | 168 to 169
CCCCc1c2ccccc2nc2c1c(C)nn2-c1ccccn1 [Example 2-104, 4-Butyl-3-methyl-1-(2-pyridinyl)-1H-pyrazolo[3,4-b]quinoline] | – | – | 102 to 103
CCOC(=O)c1nn(-c2ccccn2)c2[nH]c3ccccc3c(=O)c12 [Example 2-180, Ethyl 4-oxo-1-(2-pyridinyl)-4,9-dihydro-1H-pyrazolo[3,4-b]quinoline-3-carboxylate] | – | – | 183 to 186
Cc1cccnc1-n1nc(C)c2c(Cl)c3ccccc3nc21 [Example 2-118, 4-Chloro-3-methyl-1-(3-methyl-2-pyridinyl)-1H-pyrazolo[3,4-b]quinoline] | – | – | 160 to 161
CCOc1cccc(-n2nc(C)c3c(Cl)c4cccc(C)c4nc32)n1 [Example 2-128, 4-Chloro-3,8-dimethyl-1-(6-ethoxy-2-pyridinyl)-1H-pyrazolo[3,4-b]quinoline] | – | – | 151 to 153
